This is an account of results in patent US11076597B2, “High stress resistant plant growth regulator and preparation method and use thereof” (SHANGHAI INSTITUTES FOR BIOLOGICAL SCIENCES, CHINESE …, priority 2015, dated 2021).

For one experiment, the system named is cotton. Briefly: Leaf transpiration experiment, cotton. Conditions: 20 μM spray 25 days after sowing, two days after spraying; FIG. 6. Format: in vivo. As for the experimental part: (§1) ABA synthesis mutant aba2-1 was used in Arabidopsis leaf transpiration experiment. […] Therefore, this mutant is used to exclude the effect of endogenous ABA on the transpiration experiment. The plants were sprayed with a solution containing 0.05% tween-20 and corresponding concentrations of (+)-ABA/0224/0304/0706/0715/0428 or 0.05% Tween-20 and 0.05% DMSO (control) after three weeks of continuous watering with an amount of 1.2 ml/pot. Leaf transpiration experiments of soybeans were conducted at 26° C. with long-day lighting and soybeans were sprayed with a solution containing 0.1% tween-20 and 20 μM (+)-ABA/0224/0304 compound or 0.1% Tween-20 and 0.05% DMSO (control) 14 days after sowing with an amount of 4 ml/pot; the leaf transpiration experiments of cottons were sprayed with a solution containing 0.1% tween-20 and 20 μM (+)-ABA/0224 compound or 0.1% Tween-20 and 0.05% DMSO, respectively, 25 days after sowing with an amount of 4 ml/pot; the leaf transpiration experiments of wheats were sprayed with a solution containing 0.1% tween-20 and 100 μM (+)-ABA/0224 compound or 0.1% Tween-20 and 0.05% DMSO (control) 18 days after sowing with an amount of 6 ml/pot. […]
(§2) In this experiment, the temperature change of leaf surface was observed and recorded by an infrared camera, thus reflecting the strength of plant transpiration. […]

For another experiment, the system named is wheat. Description: Leaf transpiration experiment, wheat. It counts as in vivo. Conditions: 100 μM spray 18 days after sowing, one day after spraying; FIG. 16. The protocol: as §1, §2
Experiment [1] has as its system soybean GmPYL6 + Arabidopsis AtHAB1. Description: AlphaScreen assay: promotion of the interaction of soybean GmPYL6 with Arabidopsis HAB1. It counts as binding, soybean (GmPYL6); Arabidopsis thaliana (HAB1). The note with it: FIG. 13a; 6×His-SUMO-tagged soybean GmPYL6, Biotin-tagged Arabidopsis HAB1 (aa 172-511), 100 nM each; pH 7.4; 1.5 h room temperature.
In experiment [2] the target is T1, PYL1 receptor-HAB1 protein phosphatase complex (Arabidopsis thaliana, UniProt Q8VZS8).
T1 construct: made in house; host or cells: E. coli BL21 (DE3)
T1 sequence (Q8VZS8 36-211): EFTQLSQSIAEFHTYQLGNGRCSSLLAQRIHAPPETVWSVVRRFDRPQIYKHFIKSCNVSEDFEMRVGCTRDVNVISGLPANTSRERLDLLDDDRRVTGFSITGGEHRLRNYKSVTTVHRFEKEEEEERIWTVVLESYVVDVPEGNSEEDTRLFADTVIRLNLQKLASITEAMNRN
T1 sequence (Q9CAJ0 172-511 partner limits assumed): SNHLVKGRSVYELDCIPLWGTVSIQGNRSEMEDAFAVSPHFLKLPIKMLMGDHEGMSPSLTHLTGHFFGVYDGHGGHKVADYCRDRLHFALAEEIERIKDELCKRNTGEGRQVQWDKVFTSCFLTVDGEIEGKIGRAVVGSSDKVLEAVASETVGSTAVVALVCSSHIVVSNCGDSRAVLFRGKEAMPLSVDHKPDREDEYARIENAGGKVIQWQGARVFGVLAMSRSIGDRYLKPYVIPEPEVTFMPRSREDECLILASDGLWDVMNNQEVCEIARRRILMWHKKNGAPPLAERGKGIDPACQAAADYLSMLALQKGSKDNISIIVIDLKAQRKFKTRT
Briefly: AlphaScreen assay, PYL1 receptor binding to HAB1. Format: biochemical. Conditions: fraction of the EC50 of ABA; FIG. 2b. As for the experimental part: (§3) The AlphaScreen kit (available from Perkin Elmer) was used, and the method was as follows: a 10× buffer (50 mM MOPS, pH 7.4, 50 mM NaF, 50 mM CHAPS, 0.1 mg/ml bovine serum albumin) diluted at 1:10, each of 100 nM HAB1 with Biotin tag sequence and PYR1/PYL1/PYL2/PYL7/GmPYL6/OsPYL2 protein with dual tags of 6×His and SUMO sequences, corresponding concentrations of (+)-ABA/0224/0304/0706/0708/0713/0715/0428/NC0F4, and 5 μg/ml donor beads and acceptor beads (available from Perkin Elmer) were contained in 150 μl of experimental system. After incubating for 1.5 hours at room temperature in the dark, it was placed into an Envision Plate Reader (available from Perkin Elmer) under the programmed AlphaScreen procedure for readings.
(§4) AlphaScreen technology was used to test the ability of the compounds of the present invention to promote PYL receptor binding to PP2C protein phosphatase (HAB1).
(Bead proximity is the source of the signal in Alpha formats.)

Experiment [3] has as its system Arabidopsis thaliana Col-0 ecotype seeds. Briefly: Seed germination, Col-0 ecotype. It counts as in vivo. The protocol:
Take the compounds 0428 and 0224 of the present invention as examples. The seeds of Arabidopsis thaliana Col-0 ecotype and PYL receptor triple mutant (pyr1;pyl1;pyl4) were sterilized with NaClO and placed at 4° C. for 3 days of the vernalization, and then sown in ½ MS solid medium containing 1 μM (+)-ABA/0224 compound or 0.05% DMSO (control) or in ½ MS solid medium containing 2 μM (+)-ABA/compound 0428 of the present invention or 0.05% DMSO (control). Two lines of plant were sown simultaneously on each medium of 6 cm diameter, with 15-20 seeds sown for each line and 4 replicates for each compound. Culture medium was placed at 22° C. with long-day culture. The seeds germinated on a solid medium containing 1 μM (+)-ABA/0224 compound were photographed 6 days after sowing, and seeds germinated on solid medium containing 2 μM (+)-ABA/0428 compound were photographed 9 days after sowing.

Experiment [4] concerns the target T2, PYL7 receptor-HAB1 protein phosphatase complex (Arabidopsis thaliana, UniProt Q1ECF1).
T2 construct: made in house; host or cells: E. coli BL21 (DE3)
T2 sequence (Q1ECF1 1-211): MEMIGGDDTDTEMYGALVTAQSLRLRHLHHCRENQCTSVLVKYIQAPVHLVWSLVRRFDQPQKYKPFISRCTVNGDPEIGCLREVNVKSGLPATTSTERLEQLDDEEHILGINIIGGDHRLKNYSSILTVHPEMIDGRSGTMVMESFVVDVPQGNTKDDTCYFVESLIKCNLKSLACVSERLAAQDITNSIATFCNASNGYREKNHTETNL
T2 sequence (Q9CAJ0 172-511 partner limits assumed): T1 sequence (Q9CAJ0 172-511 partner limits assumed)
Briefly: AlphaScreen assay, PYL7 receptor binding to HAB1. Format: biochemical. Also noted: unit not given beside the values. Conditions: fraction of the EC50 of ABA; FIG. 2d. The protocol:
as §3, §4

For experiment [5], the target named is T3, PYR1 receptor-HAB1 protein phosphatase complex (Arabidopsis thaliana, UniProt O49686).
T3 construct: made in house; host or cells: E. coli BL21 (DE3)
T3 sequence (O49686 1-191): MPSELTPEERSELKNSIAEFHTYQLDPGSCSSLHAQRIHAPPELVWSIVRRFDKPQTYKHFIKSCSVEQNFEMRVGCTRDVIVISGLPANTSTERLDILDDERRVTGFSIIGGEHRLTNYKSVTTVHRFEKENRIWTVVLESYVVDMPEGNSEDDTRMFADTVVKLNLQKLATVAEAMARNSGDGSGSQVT
T3 sequence (Q9CAJ0 172-511 partner limits assumed): T1 sequence (Q9CAJ0 172-511 partner limits assumed)
Briefly: AlphaScreen assay, PYR1 receptor binding to HAB1. Format: biochemical. Conditions: fraction of the EC50 of ABA; FIG. 2a, 2h. As for the experimental part: as §3, §4

Structures are written as SMILES. “Also recorded” adds a separate entry of the source.

For `CC1=CC(=O)CC(C)(C)[C@@]1(O)/C=C/C(C)=C\C(=O)O` [ABA, Abscisic Acid, reference compound], the “leaf temperature versus DMSO control (leaf transpiration)” value in the experiment on cotton is “had no difference from that in the control group”; with wheat, “still significant higher than that of plants in DMSO-sprayed control group”. For the same compound, the EC50 in experiment [1] turned out to be 88.4 nM.
As for `CCCN1C(=O)OC(C)c2cc(NS(=O)(=O)Cc3c(F)c(F)c(C)c(F)c3F)ccc21` (centres unmarked) [Compound 0224], the “EC50 value with PYL1 receptor-HAB1 complex as fraction of that of ABA” value in experiment [2] is “⅛”. In addition, the “inhibition of seed germination of Col-0” value in experiment [3] (1 μM in 1/2 MS solid medium, 6 days after sowing, FIG. 3) was “can inhibit the seed germination of Col-0; also recorded: could inhibit the seed germination of Col-0 ecotype”. For the same compound, in experiment [4], the “EC50 value with PYL7 receptor-HAB1 complex as fraction of that of ABA” value is 1/10. The “leaf temperature versus DMSO control (leaf transpiration)” value with cotton is reported as “significantly reduce the transpiration rate of the cotton leaf; also recorded: still significant higher than that of plants in DMSO-sprayed control group”; in the experiment on wheat, “significantly reduce the transpiration rate of the wheat leaf; also recorded: still significant higher than that of plants in DMSO-sprayed control group”. The “EC50 value with PYR1 receptor-HAB1 complex as fraction of that of ABA” value in experiment [5] is given as 1/40.
As for `CCCN1C(=O)OC(C)(C)c2cc(NS(=O)(=O)Cc3c(F)c(F)c(C)c(F)c3F)ccc21` [Compound 0304], the “EC50 value with PYL1 receptor-HAB1 complex as fraction of that of ABA” value in experiment [2] is given as 1/7. Moreover, the “EC50 value with PYL7 receptor-HAB1 complex as fraction of that of ABA” value in experiment [4] was 1/10. The “EC50 value with PYR1 receptor-HAB1 complex as fraction of that of ABA” value in experiment [5] is 1/24.
`CCCN1C(=O)OCc2cc(NS(=O)(=O)Cc3c(F)c(F)c(C)c(F)c3F)ccc21` [Compound 0428]: in experiment [3] (2 μM in 1/2 MS solid medium, 9 days after sowing, FIG. 15), the “inhibition of seed germination of Col-0” value was “can inhibit the seed germination of the Col-0; also recorded: could inhibit the seed germination of Col-0 ecotype”. For the same compound, the EC50 in experiment [1] is 6.28 nM.

What is called EC50 is the concentration at which the effect is half-maximal.
